Earlier results on 4 compounds are cited in patent publication US11452768B2, “Combination therapy with neoantigen vaccine” (The Broad Institute Inc., priority 2013, dated 2022).

Data set [1] has as its system advanced hormone refractory prostate cancer. Conditions: personalized vaccination combined with a low dose of estramustine.
For a further data set, the system named is ovarian carcinoma. Conditions: in combination with NY-ESO-1 peptide vaccine and Montanide.
Data set [2] concerns gene expression in whole blood. Particulars: one single s.c. administration, 8 volunteers vs 4 placebo.
Another data set has as its system advanced melanoma. Particulars: nivolumab and ipilimumab combined, intravenous.

Bounds are passed on as bounds.

Take `C[C@]12CC[C@@H]3c4ccc(OC(=O)N(CCCl)CCCl)cc4CC[C@H]3[C@@H]1CC[C@@H]2O` [estramustine]: the “Patients with a ≥50% decrease in serum prostate specific antigen (PSA)” value in data set [1] is 54%.
Regarding “Polyinosinic-Polycytidylic Acid-poly-L-lysine Carboxymethylcellulose [poly-ICLC]”, in the data set with ovarian carcinoma, the “Patients showing induction of CD4+ and CD8+ T cell and antibody responses to the peptide” value is given as > 90%. The “Differentially expressed genes versus placebo” value in data set [2] is recorded as “up to 212 genes”. Where the note is “high doses ≥6 mg/m2”, the “Fever (common adverse event, primary dose-limiting factor)” value was “above 40 °C”. In addition, the “Tolerability across all studies and spectrum of diseases” value (low dose (1-2 mg total dose)) is “well-tolerated”.
“ipilimumab: monoclonal antibody that binds and blocks CTLA-4”: the “Maximum doses associated with an acceptable level of adverse events” value in the data set with advanced melanoma is reported as 3 mg per kilogram.
For “nivolumab: fully human IgG4 blocking monoclonal antibody against PD-1”, the Objective responses with tumor types (across tumor types) is recorded as 16-31%. In the data set on tumor types (in vivo), the “Durability of most responses” value was > 1 year and the Safety result is “safe”. Further, the “Maximum doses associated with an acceptable level of adverse events” value with advanced melanoma is given as 1 mg per kilogram.
